Results as given in ChEMBL document CHEMBL5579839, “Discovery of new cyclopropane sulfonamide derivatives as EGFR inhibitors to overcome C797S-mediated resistance and EGFR double mutation” (Eur J Med Chem, 2024).
pIC50: −log10 of the molar value. The source made the active and inactive calls. The rule behind the calls is not given here.

Legend:
[1] = system: BaF3; test: Antiproliferative activity against mouse BaF3 cells harboring EGFR C797S/L858R/T790M mutant; type: functional, cell-based
[2] = system: BaF3; test: Antiproliferative activity against mouse BaF3 cells harboring EGFR C797S/Del19/T790M mutant; type: functional, cell-based
[3] = molecular target: T1, Epidermal growth factor receptor (Homo sapiens, UniProt P00533); test: Inhibition of wild-type EGFR (unknown origin)
[4] = molecular target: Epidermal growth factor receptor (Homo sapiens, UniProt P00533, C797S/EX19DEL/T790M); test: Inhibition of EGFR C797S/T790M/Del19 mutant (unknown origin)
[5] = system: NCI-H1975; test: Antiproliferative activity against human NCI-H1975 cells assessed as inhibition of sphere formation incubated for 72 hrs by CCK8 assay; type: functional, cell-based; conditions: NCI-H1975, 72 h
[6] = system: BaF3; test: Antiproliferative activity against mouse BaF3 cells harboring EGFR L858R/T790M/C797S mutant assessed as inhibition of sphere formation incubated for 72 hrs by CCK8 assay; type: functional, cell-based; conditions: BaF3, 72 h
[7] = system: BaF3; test: Induction of cell death in outer layer of cell spheres of mouse BaF3 cells harboring EGFR L858R/T790M/C797S mutant at 1 nM by Calcein AM/PI staining based analysis; type: functional
[8] = system: BaF3; test: Induction of cell death in inner region of cell spheres of mouse BaF3 cells harboring EGFR L858R/T790M/C797S mutant at 10 nM by Calcein AM/PI staining based analysis; type: functional
[9] = system: NCI-H1975; test: Induction of apoptosis in human NCI-H1975 cells assessed as increase in green fluorescence at 10 to 25 nM by TUNNEL method; type: functional, cell-based; conditions: dose 10-25 nM
[10] = system: BaF3; test: Induction of apoptosis in mouse BaF3 cells harboring EGFR L858R/T790M/C797S mutant assessed as increase in green fluorescence at 10 to 25 nM by TUNNEL method; type: functional, cell-based; conditions: dose 10-25 nM
[11] = system: NCI-H1975; test: Induction of apoptosis in human NCI-H1975 cells assessed as early apoptotic cells at 10 nM incubated for 24 hrs by Annexin V-FITC/PI staining based flow cytometry (reference value: 2.18 %); type: functional
[12] = system: NCI-H1975; test: Induction of apoptosis in human NCI-H1975 cells assessed as late apoptotic cells at 10 nM incubated for 24 hrs by Annexin V-FITC/PI staining based flow cytometry (reference value: 3.55 %); type: functional
[13] = system: BaF3; test: Induction of apoptosis in mouse BaF3 cells harboring EGFR L858R/T790M/C797S mutant assessed as viable cells at 10 nM incubated for 24 hrs by Annexin V-FITC/PI staining based flow cytometry (reference value: 99.77 %); type: functional; conditions: read-out: Activity
[14] = system: BaF3; test: Induction of apoptosis in mouse BaF3 cells harboring EGFR L858R/T790M/C797S mutant assessed as early apoptotic cells at 10 nM incubated for 24 hrs by Annexin V-FITC/PI staining based flow cytometry (reference value: 0.15 %); type: functional
[15] = system: NCI-H1975; test: Inhibition of cell migration in human NCI-H1975 cells at 10 nM incubated for 24 hrs by scratch healing assay relative to control; type: functional
[16] = system: NCI-H1975; test: Inhibition of cell invasion in human NCI-H1975 cells by transwell assay; type: functional, cell-based
[17] = system: BaF3; test: Inhibition of cell migration in mouse BaF3 cells harboring EGFR L858R/T790M/C797S mutant by transwell assay; type: functional, cell-based
[18] = system: BaF3; test: Antitumor activity against mouse BaF3 cells allografted in nude mouse at 50 mg/kg, po measured for 7 days relative to control; type: functional; conditions: BaF3, 168 h, time 7 day, read-out: TGI
[19] = Toxicity in nude mouse allografted with mouse BaF3 cells assessed as animal health at 50 mg/kg, po measured for 7 days; type: organism-based; conditions: in vivo, 168 h, time 7 day
[20] = Toxicity in nude mouse allografted with mouse BaF3 cells assessed as body weight loss at 50 mg/kg, po measured for 7 days; type: organism-based; conditions: in vivo, 168 h, time 7 day
[21] = Toxicity in nude mouse xenografted with human NCI-H1975 cells assessed as body weight loss at 50 mg/kg, po measured for 7 days; type: organism-based; conditions: in vivo, 168 h, time 7 day
[22] = molecular target: T1, Epidermal growth factor receptor; test: Inhibition of EGFR phosphorylation in human NCI-H1975 cells assessed as reduction in red fluorescence incubated for 24 hrs by immunofluorescence analysis; type: cell-based
[23] = system: BaF3; test: Inhibition of EGFR L858R/T790M/C797S mutant phosphorylation in mouse BaF3 cells assessed as reduction in red fluorescence incubated for 24 hrs by immunofluorescence analysis; type: cell-based
[24] = system: BaF3; test: Inhibition of EGFR L858R/T790M/C797S mutant in mouse BaF3 cells assessed as reduction in AKT phosphorylation incubated for 24 hrs by Western blot analysis; type: cell-based; conditions: dose <= 100.0 nM
[25] = molecular target: T1, Epidermal growth factor receptor; test: Inhibition of EGFR in human NCI-H1975 cells assessed as reduction in ERK phosphorylation incubated for 24 hrs by Western blot analysis; type: cell-based; conditions: dose <= 50.0 nM
[26] = system: NCI-H1975; test: Inhibition of fibronectin activation in human NCI-H1975 cells xenografted in nude mouse at 50 mg/kg, po for 7 days by IHC analysis; type: functional, organism-based; conditions: time 7.0 day
[27] = system: BaF3; test: Inhibition of fibronectin activation in mouse BaF3 cells allografted in nude mouse at 50 mg/kg, po for 7 days; type: functional, organism-based; conditions: time 7.0 day
[28] = system: NCI-H1975; test: Inhibition of neovascularization in human NCI-H1975 cells xenografted in nude mouse at 50 mg/kg, po for 7 days by IHC analysis; type: functional, organism-based; conditions: time 7.0 day
[29] = system: BaF3; test: Inhibition of neovascularization in mouse BaF3 cells allografted in nude mouse at 50 mg/kg, po for 7 days; type: functional, organism-based; conditions: time 7.0 day
[30] = Cytotoxicity against human HUVEC cells; type: toxicity, cell-based
[31] = Cytotoxicity against VEGF-stimulated human HUVEC cells; type: toxicity, cell-based
[32] = Toxicity in nude mouse allografted with mouse BaF3 cells assessed as damage in heart at 50 mg/kg, po for 7 days by H and E staining based analysis; type: organism-based; conditions: in vivo, 168 h, time 7 day
[33] = Toxicity in nude mouse allografted with mouse BaF3 cells assessed as damage in spleen at 50 mg/kg, po for 7 days by H and E staining based analysis; type: organism-based; conditions: in vivo, 168 h, time 7 day
[34] = Toxicity in nude mouse allografted with mouse BaF3 cells assessed as damage in lung at 50 mg/kg, po for 7 days by H and E staining based analysis; type: organism-based; conditions: in vivo, 168 h, time 7 day
[35] = Toxicity in nude mouse allografted with mouse BaF3 cells assessed as damage in kidney at 50 mg/kg, po for 7 days by H and E staining based analysis; type: organism-based; conditions: in vivo, 168 h, time 7 day
[36] = Toxicity in nude mouse allografted with mouse BaF3 cells assessed as lesion in heart at 50 mg/kg, po for 7 days by H and E staining based analysis; type: organism-based; conditions: in vivo, 168 h, time 7 day
[37] = Toxicity in nude mouse allografted with mouse BaF3 cells assessed as lesion in spleen at 50 mg/kg, po for 7 days by H and E staining based analysis; type: organism-based; conditions: in vivo, 168 h, time 7 day
[38] = Toxicity in nude mouse allografted with mouse BaF3 cells assessed as lesion in kidney at 50 mg/kg, po for 7 days by H and E staining based analysis; type: organism-based; conditions: in vivo, 168 h, time 7 day
[39] = molecular target: Vascular endothelial growth factor receptor 2 (Homo sapiens) (UniProt P35968); test: Binding affinity to KDR (unknown origin) at 100 nM by kinase profiling analysis
[40] = organism: Homo sapiens; test: Binding affinity to FGFR (unknown origin) at 100 nM by kinase profiling analysis

T1 sequence (P00533 whole entry): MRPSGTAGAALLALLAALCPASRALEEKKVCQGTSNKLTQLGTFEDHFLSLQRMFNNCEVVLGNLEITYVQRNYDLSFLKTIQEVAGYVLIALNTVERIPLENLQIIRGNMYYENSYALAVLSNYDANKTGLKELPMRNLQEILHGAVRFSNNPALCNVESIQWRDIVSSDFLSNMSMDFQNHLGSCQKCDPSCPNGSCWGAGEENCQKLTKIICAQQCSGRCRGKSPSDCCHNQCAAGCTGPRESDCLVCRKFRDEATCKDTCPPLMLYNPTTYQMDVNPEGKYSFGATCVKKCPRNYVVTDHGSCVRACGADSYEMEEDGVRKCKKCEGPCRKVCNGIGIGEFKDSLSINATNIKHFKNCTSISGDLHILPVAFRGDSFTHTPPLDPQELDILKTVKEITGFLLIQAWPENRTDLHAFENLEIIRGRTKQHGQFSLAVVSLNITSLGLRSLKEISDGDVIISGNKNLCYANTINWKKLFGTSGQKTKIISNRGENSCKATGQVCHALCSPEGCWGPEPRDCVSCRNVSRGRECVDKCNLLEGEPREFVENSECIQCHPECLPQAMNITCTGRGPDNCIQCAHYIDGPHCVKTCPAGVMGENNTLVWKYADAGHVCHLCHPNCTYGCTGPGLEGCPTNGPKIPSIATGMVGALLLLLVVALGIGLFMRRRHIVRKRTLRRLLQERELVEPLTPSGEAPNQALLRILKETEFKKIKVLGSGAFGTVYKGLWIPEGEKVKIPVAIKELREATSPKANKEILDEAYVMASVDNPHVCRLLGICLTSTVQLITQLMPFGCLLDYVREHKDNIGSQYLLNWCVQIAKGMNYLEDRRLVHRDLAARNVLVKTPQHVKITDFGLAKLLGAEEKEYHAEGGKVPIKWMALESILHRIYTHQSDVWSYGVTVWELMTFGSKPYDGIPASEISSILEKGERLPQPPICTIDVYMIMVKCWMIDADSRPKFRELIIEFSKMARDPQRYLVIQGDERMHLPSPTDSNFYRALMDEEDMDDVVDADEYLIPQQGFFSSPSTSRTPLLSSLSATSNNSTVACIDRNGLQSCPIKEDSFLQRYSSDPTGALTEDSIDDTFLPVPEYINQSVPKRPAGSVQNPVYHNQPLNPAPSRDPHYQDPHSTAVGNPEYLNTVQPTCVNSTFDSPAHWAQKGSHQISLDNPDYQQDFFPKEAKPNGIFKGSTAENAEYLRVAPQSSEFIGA
Chain of Epidermal growth factor receptor (Homo sapiens, UniProt P00533, C797S/EX19DEL/T790M) (P00533 whole entry, looked up, stated change not applied): as the sequence (P00533 whole entry) above
Chain of Vascular endothelial growth factor receptor 2 (Homo sapiens) (P35968 whole entry): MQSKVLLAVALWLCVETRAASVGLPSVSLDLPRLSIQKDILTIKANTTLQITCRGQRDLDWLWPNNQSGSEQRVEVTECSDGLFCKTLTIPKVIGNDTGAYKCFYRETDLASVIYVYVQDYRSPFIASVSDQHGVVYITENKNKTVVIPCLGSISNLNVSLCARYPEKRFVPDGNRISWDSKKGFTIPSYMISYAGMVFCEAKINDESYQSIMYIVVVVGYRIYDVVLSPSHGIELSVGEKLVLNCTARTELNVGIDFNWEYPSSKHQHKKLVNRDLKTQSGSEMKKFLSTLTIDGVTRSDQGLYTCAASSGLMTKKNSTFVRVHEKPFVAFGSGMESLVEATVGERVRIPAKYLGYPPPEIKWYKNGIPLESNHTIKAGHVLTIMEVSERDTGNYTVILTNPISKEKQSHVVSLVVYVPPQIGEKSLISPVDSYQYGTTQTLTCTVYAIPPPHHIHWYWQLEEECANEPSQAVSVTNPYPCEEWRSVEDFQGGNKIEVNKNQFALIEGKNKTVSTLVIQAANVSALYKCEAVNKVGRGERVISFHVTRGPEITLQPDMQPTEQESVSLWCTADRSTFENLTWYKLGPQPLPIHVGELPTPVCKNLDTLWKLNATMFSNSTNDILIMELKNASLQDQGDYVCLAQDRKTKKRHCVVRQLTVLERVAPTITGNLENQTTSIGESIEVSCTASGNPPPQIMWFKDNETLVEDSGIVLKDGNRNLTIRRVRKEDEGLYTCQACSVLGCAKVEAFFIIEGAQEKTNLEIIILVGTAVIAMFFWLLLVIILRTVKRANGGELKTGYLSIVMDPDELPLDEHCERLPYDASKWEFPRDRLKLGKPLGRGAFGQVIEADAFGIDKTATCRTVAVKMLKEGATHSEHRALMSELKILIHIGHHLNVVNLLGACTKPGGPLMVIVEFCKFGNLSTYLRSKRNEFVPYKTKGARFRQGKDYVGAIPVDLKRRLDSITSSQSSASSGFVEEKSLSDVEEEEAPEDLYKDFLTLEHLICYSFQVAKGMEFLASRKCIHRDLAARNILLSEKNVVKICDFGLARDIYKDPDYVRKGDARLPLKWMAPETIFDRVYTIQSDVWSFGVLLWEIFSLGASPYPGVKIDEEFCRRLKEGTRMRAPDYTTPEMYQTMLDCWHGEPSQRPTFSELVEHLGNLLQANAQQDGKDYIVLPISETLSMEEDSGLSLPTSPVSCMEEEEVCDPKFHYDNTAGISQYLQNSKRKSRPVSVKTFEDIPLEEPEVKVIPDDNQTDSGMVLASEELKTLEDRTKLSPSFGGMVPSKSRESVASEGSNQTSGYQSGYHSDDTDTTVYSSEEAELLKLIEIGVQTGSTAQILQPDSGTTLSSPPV

Compound: CN1CCCN(c2ccc(Nc3ncc(Br)c(Nc4ccccc4NS(=O)(=O)C4CC4)n3)cc2)CC1
- pIC50 [1]: 8.40
- pIC50 [2]: 8.52
- pIC50 [3]: 7.15
- pIC50 [4]: 9.38
- pIC50 [5]: 7.47
- pIC50 [6]: 7.95
- Activity [7]: Active
- Activity [8]: Active
- Activity [9]: Active
- Activity [10]: Active
- Activity [11]: 13.31%
- Activity [12]: 6.42%
- viability at 0.01 µM [13]: 20.7%
- Activity [14]: 9.36%
- inhibition at 0.01 µM [15]: 92%
- inhibition [16]: Active
- inhibition [17]: Active
- inhibition in vivo at 50 mg/kg [18]: 71.2%
- Activity [19]: Non-Toxic
- Activity [20]: Non-Toxic
- Activity [21]: Non-Toxic
- inhibition [22]: Active
- inhibition [23]: Active
- inhibition [24]: Dose-Dependent Effect
- inhibition [25]: Dose-Dependent Effect
- inhibition [26]: Active
- inhibition [27]: Active
- inhibition [28]: Active
- inhibition [29]: Active
- pIC50 [30]: 5.60
- pIC50 [31]: 6.10
- Activity [32]: Non-Toxic
- Activity [33]: Non-Toxic
- Activity [34]: Non-Toxic
- Activity [35]: Non-Toxic
- Activity [36]: Non-Toxic
- Activity [37]: Non-Toxic
- Activity [38]: Non-Toxic
- Activity [39]: Active
- Activity [40]: Active
